Here are results for four molecules from patent US9962447B2, “Supramolecular aggregates comprising maleimido cores” (UFPEPTIDES S.R.L., priority 2013, dated 2018).

One assay concerns the target human NOP receptor (Homo sapiens, UniProt P41146). Put plainly: Calcium mobilization in CHO cells expressing human NOP receptor and Gαqi5. The class given is cell-based. The following applies: inactive = inactive up to 1 μM. As to the method:
(§1) Cells were maintained in culture medium consisting of Dulbecco's MEM/HAM'S F-12 (50/50) supplemented with 10% foetal calf serum, penicillin (100 IU/ml), streptomycin (100 μg/ml), fungizone (2.5 μg/ml), geneticin (G418; 200 μg/ml) and hygromycin B (200 mg/ml). Cell cultures were kept at 37° C. in 5% CO2 humidified air. In all cases experimental cultures were free from selection agents (hygromycin B, G418). When confluence was reached (3-4 days), cells were sub-cultured as required using trypsin EDTA and used for experimentation. Cells were seeded at a density of 50,000 cells/well into 96-well black, clear-bottom plates. After 24 hours incubation the cells were loaded with medium supplemented with 2.5 mM probenecid, 3 μM of the calcium sensitive fluorescent dye Fluo-4 AM and 0.01% pluronic acid, for 30 min at 37° C. Afterwards the loading solution was aspirated and 100 μl/well of assay buffer: Hank's Balanced Salt Solution (HBSS) supplemented with 20 mM HEPES, 2.5 mM probenecid and 500 μM Brilliant Black (Aldrich) was added. […] On-line additions were carried out in a volume of 50 μl/well. To facilitate drug diffusion into the wells in antagonist type experiments, the present studies were performed at 37° C. and three cycles of mixing (25 μl from each well moved up and down 3 times) were performed immediately after antagonist injection to the wells.
(§2) Four mice were monitored in parallel. […] Animals locomotion was recorded for 60 min.
In general terms: Calcium flux is commonly read through the fluorescence of an indicator in the cells.

In assay [1] the test system is electrically stimulated mouse vas deferens. Particulars: versus N/OFQ; Spagnolo et al. 2007; cited from earlier work.
For assay [2] the test system is unchanged. Put plainly: Electrically stimulated mouse vas deferens. As to the method:
The bath temperature was set at 33° C. Tissues were continuously stimulated through two platinum ring electrodes with supramaximal rectangular pulses of 1 ms duration and 0.05 Hz frequency. A resting tension of 0.3 g was applied to the vas deferens.
assuming a slope value equal to unity, where CR indicate the ratio between agonist potency in the presence and absence of antagonist.

In a further assay the target is KOP receptor (Homo sapiens, UniProt P41145). In words: Calcium mobilization in CHO cells expressing KOP receptor and Gαqi5. It is filed as cell-based. Particulars: inactive = inactive up to 1 μM. As to the method: as §1, with “To facilitate drug diffusion into the wells in antagonist type experiments, the present studies were performed at 37° C. and three cycles of mixing (25 μl from each well moved up and down 3 times) were performed immediately after antagonist injection to the wells.” left out
as §2

The subject of assay [3] is vas deferens tissues taken from NOP(−/−) mice. In words: Electrically stimulated vas deferens from NOP(−/−) mice. Also noted: species or system mouse. The procedure: The mouse vas deferens were prepared as previously described (Calto et al., Eur J Pharmacol. 311, (1996) R3-5). Tissues were suspended in 5 ml organ baths containing heated Krebs solution (composition in mM: NaCl 118.5, KCl 4.7, KH2PO4 1.2, NaHCO3 25, glucose 10 and CaCl2 2.5) oxygenated with 95% O2 and 5% CO2. The bath temperature was set at 33° C. Tissues were continuously stimulated through two platinum ring electrodes with supramaximal rectangular pulses of 1 ms duration and 0.05 Hz frequency. A resting tension of 0.3 g was applied to the vas deferens. The electrically evoked contractions (twitches) were measured isotonically with a strain gauge transducer (Basile 7006, UgoBasile s.r.l., Varese, Italy) and recorded with the PC based acquisition system Power Lab (ADInstrument, USA). Following an equilibration period of 60 min, the contractions induced by electrical field stimulation were stable.

The target in a further assay is MOP receptor (Homo sapiens, UniProt P35372). Put plainly: Calcium mobilization in CHO cells expressing MOP receptor and Gαqi5. Particulars: inactive = inactive up to 1 μM. The class given is cell-based. As to the method: as §1, with “Cell” for “Cells were maintained in culture medium consisting of Dulbecco's MEM/HAM'S F-12 (50/50) supplemented with 10% foetal calf serum, penicillin (100 IU/ml), streptomycin (100 μg/ml), fungizone (2.5 μg/ml), geneticin (G418; 200 μg/ml) and hygromycin B (200 mg/ml). Cell”
as §2

In a further assay the target is T1, DOP receptor (Homo sapiens, UniProt P41143).
T1 construct: expressed in transfected cells; host or cells: CHO cells co-expressing GαqG66Di5
In words: Calcium mobilization in CHO cells expressing DOP receptor and GαqG66Di5. The class given is cell-based. The procedure: as §1, with “Cell” for “Cells were maintained in culture medium consisting of Dulbecco's MEM/HAM'S F-12 (50/50) supplemented with 10% foetal calf serum, penicillin (100 IU/ml), streptomycin (100 μg/ml), fungizone (2.5 μg/ml), geneticin (G418; 200 μg/ml) and hygromycin B (200 mg/ml). Cell”
as §2

In assay [4] the test system is vas deferens tissues taken from NOP(+/+) mice. Put plainly: Electrically stimulated vas deferens from NOP(+/+) mice. Also noted: species or system mouse.
Protocol: The bath temperature was set at 33° C. Tissues were continuously stimulated through two platinum ring electrodes with supramaximal rectangular pulses of 1 ms duration and 0.05 Hz frequency. A resting tension of 0.3 g was applied to the vas deferens. […] Following an equilibration period of 60 min, the contractions induced by electrical field stimulation were stable.

human NOP receptor, sequence (P41146 whole entry): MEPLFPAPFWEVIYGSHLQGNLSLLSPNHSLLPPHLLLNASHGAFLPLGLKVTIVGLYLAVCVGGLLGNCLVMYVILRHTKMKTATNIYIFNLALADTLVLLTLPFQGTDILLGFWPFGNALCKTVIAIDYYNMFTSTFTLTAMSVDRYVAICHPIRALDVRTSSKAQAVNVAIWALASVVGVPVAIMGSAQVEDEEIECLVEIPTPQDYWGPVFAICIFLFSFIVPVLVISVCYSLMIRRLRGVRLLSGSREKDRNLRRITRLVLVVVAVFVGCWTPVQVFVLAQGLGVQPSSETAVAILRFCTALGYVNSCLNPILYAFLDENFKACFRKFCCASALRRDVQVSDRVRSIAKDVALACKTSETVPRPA
KOP receptor, sequence (P41145 whole entry, the tested form may be a part): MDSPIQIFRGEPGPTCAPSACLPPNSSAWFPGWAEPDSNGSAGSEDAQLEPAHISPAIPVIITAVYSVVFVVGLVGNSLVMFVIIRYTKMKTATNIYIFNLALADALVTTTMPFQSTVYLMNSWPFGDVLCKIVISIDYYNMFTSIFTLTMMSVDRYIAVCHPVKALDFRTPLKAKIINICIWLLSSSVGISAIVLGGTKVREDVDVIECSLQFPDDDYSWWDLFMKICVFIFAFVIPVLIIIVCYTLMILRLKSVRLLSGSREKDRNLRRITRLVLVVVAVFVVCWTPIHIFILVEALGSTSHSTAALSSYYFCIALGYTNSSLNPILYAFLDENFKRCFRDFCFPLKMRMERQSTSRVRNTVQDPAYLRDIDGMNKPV
T1 sequence (P41143 whole entry): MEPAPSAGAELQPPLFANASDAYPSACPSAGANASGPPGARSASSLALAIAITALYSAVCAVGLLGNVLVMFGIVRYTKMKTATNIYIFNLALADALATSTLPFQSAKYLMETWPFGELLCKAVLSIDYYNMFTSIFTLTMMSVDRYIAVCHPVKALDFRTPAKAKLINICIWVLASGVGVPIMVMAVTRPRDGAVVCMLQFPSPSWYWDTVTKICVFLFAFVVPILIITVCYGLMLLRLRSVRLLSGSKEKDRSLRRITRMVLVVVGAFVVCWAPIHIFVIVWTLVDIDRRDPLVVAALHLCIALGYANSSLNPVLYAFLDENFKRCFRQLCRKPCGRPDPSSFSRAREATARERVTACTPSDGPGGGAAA
MOP receptor, sequence (P35372 whole entry): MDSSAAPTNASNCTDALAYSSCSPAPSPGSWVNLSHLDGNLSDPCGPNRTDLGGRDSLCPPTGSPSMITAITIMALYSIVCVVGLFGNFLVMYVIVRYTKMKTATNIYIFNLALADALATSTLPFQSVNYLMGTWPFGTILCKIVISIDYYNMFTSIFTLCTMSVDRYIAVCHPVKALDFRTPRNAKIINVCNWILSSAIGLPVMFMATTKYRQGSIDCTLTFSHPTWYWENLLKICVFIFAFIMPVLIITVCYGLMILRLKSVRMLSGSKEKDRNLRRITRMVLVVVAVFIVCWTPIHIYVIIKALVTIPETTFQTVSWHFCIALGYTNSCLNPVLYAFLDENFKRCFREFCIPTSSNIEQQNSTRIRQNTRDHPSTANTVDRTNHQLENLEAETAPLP

In the case of Dynorphin A, the “pEC50 (CL95%)” value on human NOP receptor is “inactive”.

On to `Cc1cccc2c1CC[C@H](CN1CCC(c3c(Cl)cccc3Cl)CC1)C[C@@H]2O` [SB-612111, reference compound], for which, in assay [1], the “SB-612111 pKB, literature” value is on record as 8.50. The “effect per se on control twitches” value in assay [2] (100 nM) was “did not modify per se the control twitches”. Further, the Kb in assay [2] (Mus musculus, read-out: SB-612111 pKB (CL95%), SB-612111 100 nM versus N/OFQ (converted)) was 3.31 nM.

As usually defined, the pEC50 is −log10 of the EC50, conventionally taken in molar units. As for DPDPE, at human NOP receptor, the “pEC50 (CL95%)” value was “inactive”. Further, the negative logarithm of the EC50 (pEC50) result at KOP receptor is “inactive”; in assay [3] (CL95% in brackets), 8.42 (8.16-8.68); on MOP receptor, “inactive”; in assay [4] (CL95% in brackets), 8.45 (8.19-8.71). In addition, the Emax in assay [3] is reported as 94 ± 3; in assay [4] (maximal inhibition of electrically induced contractions), 91 ± 3%. Moreover, the maximal effects at DOP receptor is listed as 86±14%.

On to `C[C@@H](NC(=O)[C@@H](N)Cc1ccc(O)cc1)C(=O)N[C@@H](Cc1ccccc1)C(=O)NCC(=O)N[C@@H](Cc1ccc(O)cc1)C(=O)N1CCC[C@H]1C(=O)N[C@@H](CO)C(N)=O` [Dermorphin], for which the “pEC50 (CL95%)” value on human NOP receptor is “inactive”. Besides, the pEC50 entry at KOP receptor and on DOP receptor (inactive = inactive up to 1 μM) was “inactive” in each case.
